{
  "source": "patent EP1757570A1",
  "about": "“Process for obtaining a purified hydrofluoroalkane with 2 carbon atoms” (Solvay SA, priority 2005, dated 2007)",
  "origin": "cited, not measured here",
  "note": "Read-outs that look alike come from different tables or passages of the source.",
  "data": [
    {"molecule": "CC(C)(C#N)N=NC(C)(C)C#N", "note": "[AIBN, 2,2'-azobis(isobutyronitrile)]", "values": [
      {"measurement": "Half life", "setting": "65 °C", "result": 10, "unit": "h"},
      {"measurement": "Half life", "setting": "82 °C", "result": 1, "unit": "h"},
      {"measurement": "Half life", "setting": "120 °C", "result": 0.017, "unit": "h"}
    ]},
    {"molecule": "O=C(OOC(=O)c1ccccc1)c1ccccc1", "note": "[DBP, dibenzoylperoxide]", "values": [
      {"measurement": "Half life", "setting": "73 °C, in solution in benzene", "result": 10, "unit": "h"},
      {"measurement": "Half life", "setting": "92 °C, in solution in benzene", "result": 1, "unit": "h"},
      {"measurement": "Half life", "setting": "131 °C, in solution in benzene", "result": 0.017, "unit": "h"}
    ]}
  ]
}
